In patent publication US9944646B2, “Bicyclic azaheterocyclobenzylamines as PI3K inhibitors” (Incyte Corporation, priority 2012, dated 2018):

Molecular target: PI3Kδ (Homo sapiens (Human), UniProt O00329)
Assay: PI3K Enzyme Assay (Example A2), [γ-33P]ATP filter plate
Type: biochemical
Description: Example A2: PI3K Enzyme Assay
Lipid kinase substrate, phosphoinositol-4,5-bisphosphate (PIP2), are purchased from Echelon Biosciences (Salt Lake City, Utah). PI3K isoforms α, β, δ and γ are purchased from Millipore (Bedford, Mass.). ATP, MgCl2, DTT, EDTA, MOPS and CHAPS are purchased from Sigma-Aldrich (St. Louis, Mo.).
The kinase reaction are conducted in clear-bottom 96-well plate from Thermo Fisher Scientific in a final volume of 24 μL. Inhibitors are first diluted serially in DMSO and added to the plate wells before the addition of other reaction components. The final concentration of DMSO in the assay is 0.5%. The PI3K assays are carried out at room temperature in 20 mM MOPS, pH 6.7, 10 mM MgCl2, 5 mM DTT and CHAPS 0.03%. The reaction mixture is prepared containing 50 µM PIP2, kinase and varying concentration of inhibitors. Reactions are initiated by the addition of ATP containing 2.2 μCi [γ-^33P]ATP to a final concentration of 1000 μM. The final concentration of PI3K isoforms α, β, δ and γ in the assay were 1.3, 9.4, 2.9 and 10.8 nM, respectively. Reactions are incubated for 180 minutes and terminated by the addition of 100 μL of 1 M potassium phosphate pH 8.0, 30 mM EDTA quench buffer. A 100 μL aliquot of the reaction solution are then transferred to 96-well Millipore MultiScreen IP […] PVDF filter plate (The filter plate is prewetted with 200 μL 100% ethanol, distilled water, and 1 M potassium phosphate pH 8.0, respectively). The filter plate is aspirated on a Millipore Manifold under vacuum and washed with 18×200 μL wash buffer containing 1 M potassium phosphate pH 8.0 and 1 mM ATP. After drying by aspiration and blotting, the plate is air dried in an incubator at 37° C. overnight. Packard TopCount adapter (Millipore) is then attached to the plate followed with addition of 120 μL Microscint 20 scintillation cocktail (Perkin Elmer) in each well. After the plate sealing, the radioactivity of the product is determined by scintillation counting on Topcount (Perkin-Elmer). IC50 determination is performed by fitting the curve of percent control activity versus the log of the inhibitor concentration using the GraphPad Prism 3.0 software.

Sequence of PI3Kδ (O00329 whole entry): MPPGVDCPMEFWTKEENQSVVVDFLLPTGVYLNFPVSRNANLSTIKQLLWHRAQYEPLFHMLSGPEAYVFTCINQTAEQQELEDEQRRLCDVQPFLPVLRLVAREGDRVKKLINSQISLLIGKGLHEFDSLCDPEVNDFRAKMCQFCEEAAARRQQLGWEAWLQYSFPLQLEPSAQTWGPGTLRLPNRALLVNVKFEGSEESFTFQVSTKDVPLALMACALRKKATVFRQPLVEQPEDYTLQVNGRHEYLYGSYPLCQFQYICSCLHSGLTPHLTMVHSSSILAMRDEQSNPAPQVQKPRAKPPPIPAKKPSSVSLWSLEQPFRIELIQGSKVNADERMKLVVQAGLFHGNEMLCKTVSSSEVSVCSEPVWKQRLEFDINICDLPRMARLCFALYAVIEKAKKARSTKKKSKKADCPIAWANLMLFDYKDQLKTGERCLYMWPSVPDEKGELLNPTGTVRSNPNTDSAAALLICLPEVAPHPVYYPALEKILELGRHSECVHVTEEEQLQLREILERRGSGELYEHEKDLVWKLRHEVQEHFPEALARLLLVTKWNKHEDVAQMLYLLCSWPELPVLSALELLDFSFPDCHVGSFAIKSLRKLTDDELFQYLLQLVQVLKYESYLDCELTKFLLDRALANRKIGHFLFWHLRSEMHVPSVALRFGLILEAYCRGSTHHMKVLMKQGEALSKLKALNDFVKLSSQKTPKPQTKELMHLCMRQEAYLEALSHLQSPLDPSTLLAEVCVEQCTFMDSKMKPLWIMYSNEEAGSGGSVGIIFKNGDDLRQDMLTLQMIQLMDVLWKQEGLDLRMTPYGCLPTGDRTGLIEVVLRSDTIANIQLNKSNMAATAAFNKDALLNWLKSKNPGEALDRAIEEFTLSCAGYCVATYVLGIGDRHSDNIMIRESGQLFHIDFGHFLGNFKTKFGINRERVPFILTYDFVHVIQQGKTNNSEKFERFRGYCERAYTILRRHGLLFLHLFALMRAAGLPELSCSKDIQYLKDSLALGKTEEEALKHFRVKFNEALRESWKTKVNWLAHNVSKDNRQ
Sequence of PI3Kδ (P27986 whole entry partner): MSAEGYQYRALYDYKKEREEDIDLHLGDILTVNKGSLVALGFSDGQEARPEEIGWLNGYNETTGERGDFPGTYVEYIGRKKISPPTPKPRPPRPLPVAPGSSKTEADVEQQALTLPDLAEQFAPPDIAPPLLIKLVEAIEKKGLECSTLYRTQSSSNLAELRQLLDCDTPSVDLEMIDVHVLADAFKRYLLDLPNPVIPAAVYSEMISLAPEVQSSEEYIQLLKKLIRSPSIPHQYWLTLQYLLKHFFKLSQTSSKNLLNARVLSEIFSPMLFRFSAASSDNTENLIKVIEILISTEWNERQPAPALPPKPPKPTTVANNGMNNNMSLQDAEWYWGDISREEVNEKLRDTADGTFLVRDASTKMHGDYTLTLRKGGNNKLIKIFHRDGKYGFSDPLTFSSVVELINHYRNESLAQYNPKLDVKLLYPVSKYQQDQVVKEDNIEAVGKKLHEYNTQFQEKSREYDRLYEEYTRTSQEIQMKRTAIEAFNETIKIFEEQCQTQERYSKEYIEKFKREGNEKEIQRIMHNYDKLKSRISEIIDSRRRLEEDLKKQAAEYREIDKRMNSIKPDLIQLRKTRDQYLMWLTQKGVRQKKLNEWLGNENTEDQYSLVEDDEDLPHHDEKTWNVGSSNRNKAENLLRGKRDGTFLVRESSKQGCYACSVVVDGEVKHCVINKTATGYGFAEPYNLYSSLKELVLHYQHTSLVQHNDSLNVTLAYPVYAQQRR

Q: How did the IC50 turn out when `Cc1nn(C(C)c2cc(Cl)c(F)c3c2OC(C)CN(C2CN(C(=O)OC(C)(C)C)C2)C3)c2ncnc(N)c12` (single isomer, unassigned) [Example 26, tert-Butyl 3-[9-[1-(4-amino-3-methyl-1H-pyrazolo[3,4-d]pyrimidin-1-yl)ethyl]-7-chloro-6-fluoro-2-methyl-2,3-dihydro-1,4-benzoxazepin-4(5H)-yl]azetidine-1-carboxylate] was run?
A: ≤ 0.1 µM

Q: How did the IC50 turn out when `CC(=O)N1CC(N2Cc3c(F)c(Cl)cc(C(C)n4nc(C)c5c(N)ncnc54)c3OC(C)C2)C1` (single isomer, unassigned) [Example 31, 1-{1-[4-(1-Acetylazetidin-3-yl)-7-chloro-6-fluoro-2-methyl-2,3,4,5-tetrahydro-1,4-benzoxazepin-9-yl]ethyl}-3-methyl-1H-pyrazolo[3,4-d]pyrimidin-4-amine] was run?
A: > 0.8 µM

Q: With `CC(=O)N1CC(N2Cc3c(F)c(Cl)cc(C(C)n4nc(C)c5c(N)ncnc54)c3OC(C)C2)C1` (single isomer, unassigned) [Example 33, 1-{1-[4-(1-Acetylazetidin-3-yl)-7-chloro-6-fluoro-2-methyl-2,3,4,5-tetrahydro-1,4-benzoxazepin-9-yl]ethyl}-3-methyl-1H-pyrazolo[3,4-d]pyrimidin-4-amine] as the compound, how does the IC50 read?
A: 0.1 to 0.5 µM

Q: `Cc1nn(C(C)c2cc(Cl)c(F)c3c2OC[C@H](C)N(S(C)(=O)=O)C3)c2ncnc(N)c12` (single isomer, unassigned) [Example 35] was tested. Which IC50 did it give?
A: ≤ 0.1 µM

Q: For `Cc1nn(C(C)c2cc(Cl)c(F)c3c2OC[C@H](C)N(S(C)(=O)=O)C3)c2ncnc(N)c12` (single isomer, unassigned) [Example 36], which IC50 is on record?
A: 0.5 to 1 µM

Q: Which IC50 does the source give for `Cc1nn(C(C)c2cc(Cl)c(F)c3c2OC(C)CN(S(C)(=O)=O)C3)c2ncnc(N)c12` (single isomer, unassigned) [Example 38, 1-{1-[7-Chloro-6-fluoro-2-methyl-4-(methylsulfonyl)-2,3,4,5-tetrahydro-1,4-benzoxazepin-9-yl]ethyl}-3-methyl-1H-pyrazolo[3,4-d]pyrimidin-4-amine] here?
A: > 0.8 µM

Q: How did the IC50 turn out when `Cc1nn(C(C)c2cc(Cl)c(F)c3c2OC(C)CN(S(C)(=O)=O)C3)c2ncnc(N)c12` (single isomer, unassigned) [Example 39, 1-{1-[7-Chloro-6-fluoro-2-methyl-4-(methylsulfonyl)-2,3,4,5-tetrahydro-1,4-benzoxazepin-9-yl]ethyl}-3-methyl-1H-pyrazolo[3,4-d]pyrimidin-4-amine] was run?
A: > 0.8 µM

Q: Which IC50 does the source give for `Cc1nn(C(C)c2cc(Cl)c(F)c3c2O[C@@H](C)CN(C2CC(C(N)=O)C2)C3)c2ncnc(N)c12` (single isomer, unassigned) [Example 44] here?
A: ≤ 0.1 µM

Q: How did the IC50 turn out when `CC(=O)N1CC(N2Cc3c(C#N)c(Cl)cc(C(C)n4nc(C)c5c(N)ncnc54)c3OC(C)C2)C1` (single isomer, unassigned) [Example 48, 4-(1-Acetylazetidin-3-yl)-9-[1-(4-amino-3-methyl-1H-pyrazolo[3,4-d]pyrimidin-1-yl)ethyl]-7-chloro-2-methyl-2,3,4,5-tetrahydro-1,4-benzoxazepine-6-carbonitrile] was run?
A: 0.1 to 0.5 µM

Q: Which IC50 does the source give for `Cc1nn(C(C)c2cc(Cl)c(C#N)c3c2OC(C)CN(C2CN(CC(N)=O)C2)C3)c2ncnc(N)c12` (single isomer, unassigned) [Example 50, 2-{3-[9-[1-(4-Amino-3-methyl-1H-pyrazolo[3,4-d]pyrimidin-1-yl)ethyl]-7-chloro-6-cyano-2-methyl-2,3-dihydro-1,4-benzoxazepin-4(5H)-yl]azetidin-1-yl}acetamide] here?
A: ≤ 0.1 µM

Q: `Cc1nn(C(C)c2cc(Cl)c(C#N)c3c2OC(C)CN(C2CN(CC(N)=O)C2)C3)c2ncnc(N)c12` (single isomer, unassigned) [Example 51, 2-{3-[9-[1-(4-Amino-3-methyl-1H-pyrazolo[3,4-d]pyrimidin-1-yl)ethyl]-7-chloro-6-cyano-2-methyl-2,3-dihydro-1,4-benzoxazepin-4(5H)-yl]azetidin-1-yl}acetamide] was tested. Which IC50 did it give?
A: ≤ 0.1 µM

Q: How did the IC50 turn out when `Cc1nn(C(C)c2cc(Cl)c(C#N)c3c2OC(C)CN(C2CN(CC(N)=O)C2)C3)c2ncnc(N)c12` (single isomer, unassigned) [Example 53, 2-{3-[9-[1-(4-Amino-3-methyl-1H-pyrazolo[3,4-d]pyrimidin-1-yl)ethyl]-7-chloro-6-cyano-2-methyl-2,3-dihydro-1,4-benzoxazepin-4(5H)-yl]azetidin-1-yl}acetamide] was run?
A: ≤ 0.1 µM

Q: How did the IC50 turn out when `Cc1nn(C(C)c2cc(Cl)c(C#N)c3c2OC(C)CN(C2CN(CC(C)(C)O)C2)C3)c2ncnc(N)c12` (single isomer, unassigned) [Example 54, 9-[1-(4-Amino-3-methyl-1H-pyrazolo[3,4-d]pyrimidin-1-yl)ethyl]-7-chloro-4-[1-(2-hydroxy-2-methylpropyl)azetidin-3-yl]-2-methyl-2,3,4,5-tetrahydro-1,4-benzoxazepine-6-carbonitrile] was run?
A: ≤ 0.1 µM

Q: With `Cc1nn(C(C)c2cc(Cl)c(C#N)c3c2OC(C)CN(C2CN(CC(C)(C)O)C2)C3)c2ncnc(N)c12` (single isomer, unassigned) [Example 55, 9-[1-(4-Amino-3-methyl-1H-pyrazolo[3,4-d]pyrimidin-1-yl)ethyl]-7-chloro-4-[1-(2-hydroxy-2-methylpropyl)azetidin-3-yl]-2-methyl-2,3,4,5-tetrahydro-1,4-benzoxazepine-6-carbonitrile] as the compound, how does the IC50 read?
A: ≤ 0.1 µM

Q: How did the IC50 turn out when `Cc1nn(C(C)c2cc(Cl)c(C#N)c3c2OC(C)CN(Cc2cccnc2)C3)c2ncnc(N)c12` (single isomer, unassigned) [Example 59, 9-[1-(4-Amino-3-methyl-1H-pyrazolo[3,4-d]pyrimidin-1-yl)ethyl]-7-chloro-2-methyl-4-(pyridin-3-ylmethyl)-2,3,4,5-tetrahydro-1,4-benzoxazepine-6-carbonitrile] was run?
A: ≤ 0.1 µM

Q: For `Cc1nn(C(C)c2cc(Cl)c(C#N)c3c2OC(C)CN(Cc2cccnc2)C3)c2ncnc(N)c12` (single isomer, unassigned) [Example 60, 9-[1-(4-Amino-3-methyl-1H-pyrazolo[3,4-d]pyrimidin-1-yl)ethyl]-7-chloro-2-methyl-4-(pyridin-3-ylmethyl)-2,3,4,5-tetrahydro-1,4-benzoxazepine-6-carbonitrile], which IC50 is on record?
A: ≤ 0.1 µM

Q: For `Cc1nn(C(C)c2cc(Cl)c(C#N)c3c2OC(C)CN(CCO)C3)c2ncnc(N)c12` (single isomer, unassigned) [Example 61, 9-[1-(4-Amino-3-methyl-1H-pyrazolo[3,4-d]pyrimidin-1-yl)ethyl]-7-chloro-4-(2-hydroxyethyl)-2-methyl-2,3,4,5-tetrahydro-1,4-benzoxazepine-6-carbonitrile], which IC50 is on record?
A: > 0.8 µM

Q: For `Cc1nn(C(C)c2cc(Cl)c(C#N)c3c2OC(C)CN(CCO)C3)c2ncnc(N)c12` (single isomer, unassigned) [Example 64, 9-[1-(4-Amino-3-methyl-1H-pyrazolo[3,4-d]pyrimidin-1-yl)ethyl]-7-chloro-4-(2-hydroxyethyl)-2-methyl-2,3,4,5-tetrahydro-1,4-benzoxazepine-6-carbonitrile], which IC50 is on record?
A: 0.1 to 0.5 µM

Q: `Cc1nn(C(C)c2cc(Cl)c(C#N)c3c2OC(C)CN(CC(C)(C)O)C3)c2ncnc(N)c12` (single isomer, unassigned) [Example 65, 9-[1-(4-Amino-3-methyl-1H-pyrazolo[3,4-d]pyrimidin-1-yl)ethyl]-7-chloro-4-(2-hydroxy-2-methylpropyl)-2-methyl-2,3,4,5-tetrahydro-1,4-benzoxazepine-6-carbonitrile] was tested. Which IC50 did it give?
A: ≤ 0.1 µM

Q: `Cc1nn(C(C)c2cc(Cl)c(C#N)c3c2OC(C)CN(CC(C)(C)O)C3)c2ncnc(N)c12` (single isomer, unassigned) [Example 66, 9-[1-(4-Amino-3-methyl-1H-pyrazolo[3,4-d]pyrimidin-1-yl)ethyl]-7-chloro-4-(2-hydroxy-2-methylpropyl)-2-methyl-2,3,4,5-tetrahydro-1,4-benzoxazepine-6-carbonitrile] was tested. Which IC50 did it give?
A: ≤ 0.1 µM

Q: With `CC(=O)NC1CC(N2Cc3c(C#N)c(Cl)cc(C(C)n4nc(C)c5c(N)ncnc54)c3OC(C)C2)C1` (single isomer, unassigned) [Example 67, N-{3-[9-[1-(4-Amino-3-methyl-1H-pyrazolo[3,4-d]pyrimidin-1-yl)ethyl]-7-chloro-6-cyano-2-methyl-2,3-dihydro-1,4-benzoxazepin-4(5H)-yl]cyclobutyl}acetamide] as the compound, how does the IC50 read?
A: ≤ 0.1 µM

Q: Which IC50 does the source give for `CC(=O)NC1CC(N2Cc3c(C#N)c(Cl)cc(C(C)n4nc(C)c5c(N)ncnc54)c3OC(C)C2)C1` (single isomer, unassigned) [Example 68, N-{3-[9-[1-(4-Amino-3-methyl-1H-pyrazolo[3,4-d]pyrimidin-1-yl)ethyl]-7-chloro-6-cyano-2-methyl-2,3-dihydro-1,4-benzoxazepin-4(5H)-yl]cyclobutyl}acetamide] here?
A: ≤ 0.1 µM
